# How the values were obtained:
# [1] = system: subjects with moderate AD; assay: Phase 2 study in moderate AD, NPI-12 (Neuropsychiatric Inventory) assessment; assay type: in vivo, humans; settings: for effect on NPI domains as measured by the NPI-12 scale: overall statement
# Description: The study consisted of a 2 to 4-week screening period, followed by a 26-week double-blind treatment period and a 4-week single-blind placebo washout period. […] Population: The study population included male or female subjects, 50 to 85 years of age, with moderate dementia due to probable AD (MMSE 12-20, both inclusive) based on the National Institute of Neurological and Communicative Diseases and Stroke/Alzheimer's Disease and Related Disorders Association ([…]) criteria, diagnosed at least 1 year prior to the study and receiving stable doses for at least 3 months of donepezil HCl (10 mg qd) and either memantine HCl (10 mg bid) or […]® (28 mg memantine HCl extended-release qd) or the combination therapy, NamzaricTM (28 mg memantine HCl extended-release/10 mg donepezil HCl) qd. […] Throughout the study, all subjects continued to receive donepezil HCl (10 mg qd) and memantine HCl (10 mg bid) or […]® (28 mg memantine HCl extended-release qd) or the combination therapy, NamzaricTM (28 mg memantine HCl extended-release/10 mg donepezil HCl) qd. […] During the washout period, all subjects were received placebo in addition to donepezil HCl and memantine HCl. The NPI is a 12-item structured interview with a caregiver designed to assess behavioral disturbances in patients with dementia. The NPI comprises 10 behavioral (hallucinations, delusions, agitation/aggression, dysphoria/depression, anxiety, irritability, disinhibition, euphoria/elation, apathy and aberrant motor behavior), and neurovegetative items (sleep and night-time behavior change, appetite and eating change). The behavioral domains are assessed in terms of frequency, severity and distress. Each item consists of a screening question and several sub-questions which are rated no (not present) or yes (present). Each item is then rated for frequency (a 4-point scale from 1 [occasionally] to 4 [very frequently]), severity (a 3-point scale from 1 [mild] to 3 [marked]), and caregiver distress (a 6-point scale from 0 [not at all] to 5 [very severely or extremely]). The total score 12 items of the frequency and severity ratings range from 0 to 144 and the total score 12 items of caregiver distress ranges from 0 to 60. The NPI was administered to the subject's caregiver and scored by a qualified, trained rater at baseline and Weeks 4, 13 and 26. Data was analyzed using a mixed effects model for repeated measures (MMRM). The model included fixed categorical factors for treatment, week, treatment-by-week interaction, and APO-E status (carrier-one allele, carrier-two alleles, and non-carrier), as well as a continuous covariate of baseline score, the baseline score-by-week interaction, age, and baseline MMSE score. In subgroup analysis, stratification was based on the baseline symptoms and/or symptom emergence.
# [2] = system: subjects with moderate AD; assay: Phase 2 study in moderate AD, ADAS-Cog 11 assessment; assay type: in vivo, humans; settings: for change from baseline in ADAScog-11 scores vs placebo: 50 mg
# Description: The study consisted of a 2 to 4-week screening period, followed by a 26-week double-blind treatment period and a 4-week single-blind placebo washout period. […] Population: The study population included male or female subjects, 50 to 85 years of age, with moderate dementia due to probable AD (MMSE 12-20, both inclusive) based on the National Institute of Neurological and Communicative Diseases and Stroke/Alzheimer's Disease and Related Disorders Association ([…]) criteria, diagnosed at least 1 year prior to the study and receiving stable doses for at least 3 months of donepezil HCl (10 mg qd) and either memantine HCl (10 mg bid) or […]® (28 mg memantine HCl extended-release qd) or the combination therapy, NamzaricTM (28 mg memantine HCl extended-release/10 mg donepezil HCl) qd. […] Throughout the study, all subjects continued to receive donepezil HCl (10 mg qd) and memantine HCl (10 mg bid) or […]® (28 mg memantine HCl extended-release qd) or the combination therapy, NamzaricTM (28 mg memantine HCl extended-release/10 mg donepezil HCl) qd. […] During the washout period, all subjects were received placebo in addition to donepezil HCl and memantine HCl. The Alzheimer's Disease Assessment Scale-Cognitive Subscale (ADAS-Cog) was developed to assess the level of cognitive dysfunction in AD. It is also used for assessing the efficacy of anti-dementia treatments. The ADAScog-11 is a brief measure of cognition, including word recall, commands, constructional praxis, naming objects and fingers, ideational praxis, orientation, word recognition task, remembering test instructions, spoken language ability, word-finding difficulty, and comprehension of spoken language. The test is scored by an administrator who adds up points for the errors in each task for a total score ranging from 0 to 70. The greater the dysfunction, the greater the score. A score of 70 represents the most severe impairment. Data was analyzed using a mixed effects model for repeated measures (MMRM). The model included fixed categorical factors for treatment, week, treatment-by-week interaction, and APO-E status (carrier-one allele, carrier-two alleles, and non-carrier), as well as a continuous covariate of baseline score, the baseline score-by-week interaction, age, and baseline MMSE score. In subgroup analysis, stratification was based on the baseline symptoms and/or symptom emergence.
# [3] = system: subjects with moderate AD; assay: Phase 2 study in moderate AD, safety and tolerability assessment; set-up: species or system humans; settings: in vivo
# Experimental: The study consisted of a 2 to 4-week screening period, followed by a 26-week double-blind treatment period and a 4-week single-blind placebo washout period.
# Throughout the study, all subjects continued to receive donepezil HCl (10 mg qd) and memantine HCl (10 mg bid) or Namenda XR® (28 mg memantine HCl extended-release qd) or the combination therapy, Namzaric™ (28 mg memantine HCl extended-release/10 mg donepezil HCl) qd.
# The safety assessed by monitoring adverse events, physical examinations, vital signs, clinical laboratory tests and electrocardiograms.
# [4] = baseline domain score ≥1, mITT, 50 mg, Week 4
# [5] = baseline domain score ≥1, mITT, 50 mg, Week 13
# [6] = baseline domain score ≥1, mITT, 50 mg, Week 26
# [7] = baseline domain score ≥1, mITT, 100 mg, Week 4
# [8] = baseline domain score ≥1, mITT, 100 mg, Week 13
# [9] = baseline domain score ≥1, mITT, 100 mg, Week 26
smiles,measurement,setting,value
"COc1ccc2c(c1)c(CN1CCN(C)CC1)cn2S(=O)(=O)c1ccccc1Br [masupirdine, 1-[(2-bromophenyl)sulfonyl]-5-methoxy-3-[(4-methyl-1-piperazinyl)methyl]-1H-indole]",change from baseline in mean NPI-12 scores vs placebo,"[1]; 50 mg, Week 4",statistically significant treatment differences
same,change from baseline in mean agitation/aggression domain scores of NPI-12 vs placebo,"[1]; 50 mg, Week 26, no subgroup",statistically significant treatment difference
same,mean NPI-12 scores,"[1]; Week 13, all 3 treatment arms",remained similar to baseline
same,mean NPI-12 scores,"[1]; Week 26, masupirdine dose groups",remained similar to baseline
same,change from baseline in NPI-12 domain sleep and nighttime behavior vs placebo,"[1]; baseline domain score ≥1, 50 mg, Week 26",statistically significant treatment differences
same,change from baseline in NPI-12 domain sleep and nighttime behavior vs placebo,"[1]; baseline domain score ≥1, 100 mg, Week 13",statistically significant treatment difference
same,change from baseline in NPI-12 domain sleep and nighttime behavior vs placebo,"[1]; baseline domain score ≥1, 100 mg, Week 26",statistically significant treatment differences
same,change from baseline in NPI-12 domain aberrant motor behavior vs placebo,[1]; [4],statistically significant treatment differences
same,change from baseline in NPI-12 domain delusions and/or hallucinations vs placebo,[1]; [4],statistically significant treatment difference
same,change from baseline in NPI-12 domain sleep and nighttime behavior vs placebo,[1]; [4],statistically significant treatment difference
same,change from baseline in mean euphoria/elation scores vs placebo,[1]; [4],statistically significant treatment differences
same,"extended composite NPI-12 score domain (agitation/aggression, aberrant motor behavior and sleep and nighttime behavior disorders) vs placebo",[1]; [4],statistically significant treatment differences
same,change from baseline in NPI-12 domain aberrant motor behavior vs placebo,[1]; [5],statistically significant treatment difference
same,change from baseline in NPI-12 domain delusions and/or hallucinations vs placebo,[1]; [5],statistically significant treatment difference
same,change from baseline in mean agitation/aggression scores vs placebo,[1]; [5],statistically significant treatment difference
same,change from baseline in mean euphoria/elation scores vs placebo,[1]; [5],statistically significant treatment differences
same,change from baseline in mean agitation/aggression scores vs placebo,[1]; [6],statistically significant treatment difference
same,change from baseline in mean euphoria/elation scores vs placebo,[1]; [6],statistically significant treatment differences
same,"extended composite NPI-12 score domain (agitation/aggression, aberrant motor behavior and sleep and nighttime behavior disorders) vs placebo",[1]; [6],statistically significant treatment differences
same,change from baseline in NPI-12 domain delusions and/or hallucinations vs placebo,[1]; [7],statistically significant treatment difference
same,change from baseline in NPI-12 domain sleep and nighttime behavior vs placebo,[1]; [7],statistically significant treatment difference
same,change from baseline in mean agitation/aggression scores vs placebo,[1]; [8],statistically significant treatment difference
same,"extended composite NPI-12 score domain (agitation/aggression, aberrant motor behavior and sleep and nighttime behavior disorders) vs placebo",[1]; [8],statistically significant treatment differences
same,change from baseline in NPI-12 domain disinhibition vs placebo,[1]; [9],statistically significant treatment difference
same,"extended composite NPI-12 score domain (agitation/aggression, aberrant motor behavior and sleep and nighttime behavior disorders) vs placebo",[1]; [9],statistically significant treatment differences
same,change from baseline in mean agitation/aggression scores vs placebo,"[1]; baseline domain score ≥1, mITT, treatment and time added as covariates",statistically significant treatment differences
same,"extended composite NPI-12 score domain (agitation/aggression, aberrant motor behavior and sleep and nighttime behavior disorders) vs placebo","[1]; baseline domain score ≥1, treatment added as covariate, 50 mg",statistically significant treatment difference
same,change from baseline in NPI-12 domain sleep and nighttime behavior vs placebo,"[1]; baseline domain score ≥1, treatment added as covariate, 50 mg, Week 26",statistically significant treatment difference
same,change from baseline in NPI-12 domain delusions and/or hallucinations vs placebo,"[1]; baseline domain score ≥1, treatment added as covariate, 100 mg",statistically significant treatment difference
same,change from baseline in NPI-12 domain sleep and nighttime behavior vs placebo,"[1]; baseline domain score ≥1, treatment added as covariate, 100 mg, Week 26",statistically significant treatment difference
same,change from baseline in NPI-12 domain delusions and/or hallucinations vs placebo,"[1]; baseline domain score ≥1, treatment and time added as covariates",statistically significant treatment differences
same,change from baseline in mean agitation/aggression scores vs placebo,"[1]; baseline domain score ≥3, mITT, 50 mg, Week 13",statistically significant treatment difference
same,change from baseline in mean agitation/aggression scores vs placebo,"[1]; baseline domain score ≥3, mITT, 50 mg, Week 26",statistically significant treatment difference
same,change from baseline in mean agitation/aggression scores vs placebo,"[1]; baseline domain score ≥3, mITT, 100 mg, Week 13",statistically significant treatment difference
same,change from baseline in mean agitation/aggression scores vs placebo,"[1]; baseline domain score ≥3, treatment added as covariate, 50 mg, Week 26",statistically significant treatment difference
same,change from baseline in mean agitation/aggression scores vs placebo,"[1]; baseline domain score ≥3, treatment and time added as covariates",statistically significant treatment differences
same,effect on NPI domains as measured by the NPI-12 scale,[1],beneficial effects
same,effect on NPI domains as measured by the NPI-12 scale,[1]; listed as Masupirdine,significant treatment effect
same,behavioral and psychological symptoms as assessed by NPI-12 subscale scores,[1]; subgroup analyses,significant improvement
same,change from baseline in ADAScog-11 scores vs placebo,"[2]; baseline delusion and/or hallucination score ≥1, mITT, Week 26",statistically significant treatment difference
same,change from baseline in ADAScog-11 scores vs placebo,"[2]; baseline delusion and/or hallucination score ≥1, treatment added as covariate",statistically significant treatment difference
same,change from baseline in ADAScog-11 scores vs placebo,"[2]; baseline delusion and/or hallucination score ≥1, treatment and time added as covariates",statistically significant treatment differences
same,cognition as assessed by ADAS-Cog 11 scale,[2]; subjects with delusions and hallucinations (baseline symptoms),significantly improved cognition
same,change from baseline at Week 26 in ADAS-Cog 11 score (primary efficacy endpoint),"[2]; vs placebo, whole study population",did not show significant treatment advantage in cognition over placebo
same,safety and tolerability,[3],safe and well tolerated with no significant adverse events

# Source: patent US20220409614A1, “TREATING BEHAVIORAL AND PSYCHOLOGICAL SYMPTOMS IN DEMENTIA PATIENTS” (SUVEN LIFE SCIENCES LIMITED, priority 2019, published 2022)
